Values quoted from earlier work as cited in patent US8957218B2, “2-oxo-1-imidazolidinyl imidazothiadiazole derivatives” (UCB Pharma S.A., priority 2011, dated 2015).

Tested on: epilepsy (seizure control)
Conditions: Gower A. J. et al., Eur. J. Pharmacol. (1992), 222, 193-203

CC[C@H](C(N)=O)N1CCCC1=O [(R)-α-ethyl-2-oxo-1-pyrrolidine acetamide]
activity in the treatment of epilepsy (seizure control): completely lacks activity
